Like-named read-outs stand apart in the source and are kept apart here.
Test system: RS virus
Assay: Evaluation of anti-RS viral activity (MTT assay kit; viable cell count of RS virus-infected Hep2 cells)
Type: cell-based, RS virus (human respiratory syncytial virus)
Conditions: for viability at 80 µM / viability at 16 µM: human respiratory syncytial virus, read-out: Survival Rate (%)
Method: The aforementioned Compound 1 (No. 150) to Compound 22 (No. 306) were measured for anti-RS viral activity according to the protocol of MTT assay kit (CellTiter-Glo (registered trade name) Assay, Promega Corporation).
In a 96-well plate, Hep2 cells were seeded at 1×10^3 cells per well, and each of compounds in the amount shown in Table 7, and RS virus having an infectivity titer of 1 MOI were added, and cultured for 72 hours, and then a viable cell count was determined. As a control, a well containing DMSO at 25 μM (when the additive amount of the compound is 80 μM) or 5 μM (when the additive amount of the compound is 16 μM) in place of a compound was prepared.

[1] = HEp-2, additive amount 80 μM, Hep2 cells, RS virus 1 MOI, cultured 72 hours, DMSO control = 100
[2] = HEp-2, additive amount 16 μM, Hep2 cells, RS virus 1 MOI, cultured 72 hours, DMSO control = 100

`CN1C(=O)[C@@](C[N+](=O)[O-])(c2c[nH]c3ccccc23)c2ccccc21` [Compound 9, (S)-3-(1H-indole-3-yl)-1-methyl-3-(nitromethyl)indoline-2-one] showed a viability at 80 µM [1] of 276%.
`Cc1ccc([C@@H]2[C@@H](C(=O)OC(C)(C)C)N[C@H](c3ccccc3)[C@@]23C(=O)Nc2ccccc23)cc1` [Compound 13, tert-butyl(2′R,3R,4′S,5′S)-2-oxo-2′-phenyl-4′-(p-tolyl)spiro[indoline-3,3′-pyrrolidine]-5′-carboxylate] was tested, and the viability at 16 µM [2] was 406%.
For `Oc1c(Br)cc(Br)cc1/C=N/[C@H](c1ccccc1)[C@@H](c1ccccc1)N1Cc2ccccc2C1` [Compound 15, 2,4-dibromo-6-((E)-(((1R,2R)-2-(isoindoline-2-yl)-1,2-diphenylethyl)imino)methyl)phenol], the viability at 16 µM [2] was 393%.
In the case of `CCOC(=O)C1=CN2C(=O)CC(C)(C)N2C1c1ccccc1` (stereo not drawn) [Compound 22, ethyl7,7-dimethyl-5-oxo-1-phenyl-6,7-dihydro-1H,5H-pyrazolo[1,2-a]pyrazole-2-carboxyl ate], the viability at 80 µM [1] is reported as 339%.
With `COC(=O)[C@H]1N[C@@H](c2ccccc2)[C@@H]([N+](=O)[O-])[C@@H]1c1ccccc1` [Compound 20, methyl(2S,3R,4S,5S)-4-nitro-3,5-diphenylpyrrolidine-2-carboxylate] the viability at 80 µM [1] was 344%.
`c1ccc(NCCNc2ccccc2)cc1` [Compound 5, N1,N2-diphenylethane-1,2-diamine] gave a viability at 16 µM [2] of 471%.
`CCOC(=O)C1=CN2C(=O)CCN2[C@@H]1c1ccc(OC)cc1` [Compound 18, ethyl(R)-1-(4-methoxyphenyl)-5-oxo-6,7-dihydro-1H,5H-pyrazolo[1,2-a]pyrazole-2-carboxylate] was tested, and the viability at 80 µM [1] was 349%.
`O=C1CCCCCC1C(Nc1ccc(OC(F)(F)F)cc1)c1ccccc1` (stereo not drawn) [Compound 16, 2-(phenyl((4-(trifluoromethoxy)phenyl)amino)methyl)cycloheptane-1-one] gave a viability at 16 µM [2] of 294%.
For `C=CCN1C(=O)/C(=C/[N+](=O)[O-])c2ccccc21` [Compound 14, (E)-1-allyl-3-(nitromethylene)indoline-2-one], the viability at 16 µM [2] was 409%.
`CCOC(=O)C1=CN2C(=O)CCN2[C@@H]1C1CCCCC1` [Compound 19, ethyl(R)-1-cyclohexyl-5-oxo-6,7-dihydro-1H,5H-pyrazolo[1,2-a]pyrazole-2-carboxylate] gave a viability at 16 µM [2] of 209%.
`N[C@@H](C(=O)O)c1cccc2ccccc12` [Compound 4, (R)-2-amino-2-(naphthalene-1-yl) acetic acid] showed a viability at 80 µM [1] of 450%.
`CC(C)(C)OC(=O)[C@H]1N[C@H](c2ccccc2)[C@@]2(C(=O)Nc3ccccc32)[C@@H]1c1ccc(Br)cc1` [Compound 12, tert-butyl(2′R,3R,4′S,5′S)-4′-(4-bromophenyl)-2-oxo-2′-phenylspiro[indoline-3,3′-pyrrolidine]-5′-carboxylate] gave a viability at 16 µM [2] of 475%.
`Clc1ccc(NCCNc2ccc(Cl)cc2)cc1` [Compound 7, N1,N2-bis(4-chlorophenyl)ethane-1,2-diamine] was tested, and the viability at 16 µM [2] was 405%.
For `COc1ccc(NCCNc2ccc(OC)cc2)cc1` [Compound 6, N1,N2-bis(4-methoxyphenyl)ethane-1,2-diamine], the viability at 16 µM (HEp-2, 72 h) was 472%.
With `COC(=O)C1=C(c2ccccc2)C(c2ccccc2)(C(C#N)C#N)C(C(=O)OC)=C1O` (stereo not drawn) [Compound 1, dimethyl 5-(dicyanomethyl)-2-hydroxy-4,5-diphenylcyclopenta-1,3-diene-1,3-dic arboxylate] the viability at 80 µM [1] was 359%.
Compound `c1ccc(-c2nnc(-c3ccccc3)o2)cc1` [Compound 21, 2,5-diphenyl-1,3,4-oxadiazole] has a viability at 80 µM (HEp-2, 72 h) of 248%.
In the case of `CCOC(=O)C1=CN2C(=O)CCN2[C@@H]1c1cccc(Cl)c1` [Compound 17, ethyl(R)-1-(3-chlorophenyl)-5-oxo-6,7-dihydro-1H,5H-pyrazolo[1,2-a]pyrazole-2-carboxylate], the viability at 80 µM [1] is reported as 264%.
`O=P12c3ccccc3CN1[C@H](CNc1ccccc1)CCN2c1ccccc1` (stereo partly drawn) [Compound 8, (4S,11R)-1-phenyl-4-((phenylamino)methyl)-1,2,3,4,6-pentahydrobenzo[3,4][1,2]azaphosphoro [1,2-a][1,3,2]diazaphosphinine 11-oxide] gave a viability at 16 µM [2] of 815%.
`Cc1ccc2c(c1)[C@](C[N+](=O)[O-])(c1c[nH]c3c(C)cccc13)C(=O)N2C` [Compound 10, (S)-1,5-dimethyl-3-(7-methyl-1H-indole-3-yl)-3-(nitromethyl)indoline-2-one] was tested, and the viability at 16 µM [2] was 294%.
`COC(=O)[C@@H]1N[C@H](c2cccc([C@H]3N[C@@H](C(=O)OC)[C@H](c4ccccc4)[C@H]3[N+](=O)[O-])c2)[C@H]([N+](=O)[O-])[C@H]1c1ccccc1` [Compound 2, dimethyl 5,5′-(1,3-phenylene) (2R, 2′R, 3S, 3′S, 4R, 4′R, 5R, 5′R)-bis(4-nitro-3-phenylpyrrolidine-2-carboxylate)] was tested, and the “Survival Rate (%)” value (additive amount 80 μM, Hep2 cells, RS virus 1 MOI, cultured 72 hours, DMSO control = 100) was 332%.
`c1ccc(CN2[C@H](c3cccc([C@@H]4N[C@@H](c5ccccc5)[C@H](c5ccccc5)N4Cc4ccccc4)n3)N[C@@H](c3ccccc3)[C@@H]2c2ccccc2)cc1` [Compound 11, 2,6-bis((2R,4S,5S)-1-benzyl-4,5-diphenylimidazolidine-2-yl)pyridine] gave a viability at 16 µM [2] of 274%.

Reference: patent US20170368015A1, “NOVEL COMPOUND AND ANTIVIRAL AGENT CONTAINING SAME AS ACTIVE INGREDIENT” (NATIONAL UNIVERSITY CORPORATION CHIBA UNIVERSITY, priority 2014, published 2017)
